Laboratory results as given in patent publication US9181290B2, “Inhibition of biofilm formation by 1,2,3,4,6-penta-O-galloyl-D-glucopyranose” (CHANG GUNG UNIVERSITY, priority 2011, dated 2015).
“Also recorded” adds a separate entry of the source.

Assays:
S. aureus SA113 [1] = test: Biofilm formation on β-PGG/polyaniline-coated silicon rubber discs (safranin staining); assay type: cell-based; settings: Staphylococcus aureus, polyaniline carrier, 24 hrs
Experimental: (§1) β-PGG (stock conc.: 8.89 μg/mL in DMSO) in various amounts was evenly mixed with a fixed amount of polyaniline (40 μL, 3 mg/mL in DMSO) so as to provide a 100 μL β-PGG/polyaniline mixture with a final β-PGG concentration of 0.47 μM, 0.94 μM, 1.89 μM, 3.78 μM, 4.73 μM or 5.67 μM. The resultant β-PGG/polyaniline mixture was coated on the inner surfaces of the wells of 96-well polystyrene microtiter plates in an amount of 100 μL per well. After β-PGG coating, the plates were dried in a vacuum chamber, followed by UV sterilization for 30 min. An overnight culture of S. aureus SA113 was 200-fold diluted with TSBg, and a 200 μL aliquot of the diluted culture was seeded into each well of the β-PGG-coated microtiter plates. After culturing at 37° C. for 24 hrs, the wells were washed twice with PBS, and then examined by safranin staining according to a method described earlier (Christine Heilmann et al. (1996), Infect. Immun., 64 (1):277-282), so as to quantify the amount of biofilm formed on the β-PGG-coated polystyrene surface.
Meanwhile, 6-mm diameter silicon rubber discs, which were cut from a sheet of 2-mm thick silicon rubber with a paper punch, were also coated with the resultant β-PGG mixture in an amount of 100 μL per disc. […] After incubation at 37° C. for 24 hrs, each silicon rubber disc was subjected to safranin staining, so as to quantify the amount of biofilm formed thereon.

S. aureus SA113 [2] = test: Biofilm formation on β-PGG/polyaniline-coated polystyrene wells (safranin staining); assay type: cell-based, Staphylococcus aureus; settings: polyaniline carrier, 24 hrs
Experimental: as §1

[3] = tested on: human epithelial and fibroblast cells; test: Toxicity to human cells (summary statement); assay type: cell-based; settings: concentrations below 50 μM
Experimental: Human HepG2 cells (ATCC HB-8065) and 293T cells (ATCC CRL-11268) were cultured in Dulbecco's modified Eagle's medium (DMEM) supplemented with 10% (v/v) fetal calf serum. Human MRC-5 cells (ATCC CCL171) and HEp-2 cells (ATCC CCL-23) were cultured in Eagle's minimum essential medium (MEM) supplemented with 10% fetal calf serum. These four human cell lines were seeded into 24-well polystyrene tissue culture plates at a cell density of 1×10^5 cells/500 μL medium per well, respectively. After incubation at 37° C. for 24 hrs, β-PGG was added into each well in various amounts (0, 6.25, 12.5, 25 and 50 μM). After 24 hr treatment of β-PGG, toxicity of β-PGG to these human cell lines was determined using the 3-(4,5-dimethylthiazol-2-yl)-2,5-diphenyltetrazolium bromide (MTT) method (Xiangshu Piao et al. (2008), supra). Additionally, toxicity of β-PGG to the 293T cells was also determined in medium containing 0% and 2% fetal calf serum. Cells treated with DMSO were used as a negative control.

[4] = tested on: S. aureus SA113Δica (ATCC 35556Δica::tet); test: Biofilm formation by ica deletion mutant on polycarbonate surface; assay type: cell-based, Staphylococcus aureus; settings: 6 hrs
Experimental: To quantify the amount of biofilm formed on polycarbonate surface, a 13-mm-diameter polycarbonate disc (Thermanox, Nalgene Nunc International, Rochester, N.Y., USA) was placed in a well of a 24-well microtiter plate, followed by the addition of 1 mL aliquot of the diluted bacterial culture. After incubation at 37° C. for a designated period of time, viable cells were washed off the surface of the polycarbonate disc with PBS and counted as described above, while the PBS-washed polycarbonate disc was subjected to crystal violet staining for biofilm quantification as described above.

S. aureus SA113 [5] = test: Adherence assay: β-PGG added at different times after inoculation, biofilm by crystal violet at 6 hours; assay type: cell-based, Staphylococcus aureus; settings: for reduction of biofilm formation: read at 6 hours
Experimental: At 6 hours after seeding, the wells were subjected to crystal violet staining to determine the amounts of biofilm formed on the inner surfaces of the wells of polystyrene microtiter plates or on the polycarbonate discs.

## O=C(OC[C@H]1O[C@@H](OC(=O)c2cc(O)c(O)c(O)c2)[C@H](OC(=O)c2cc(O)c(O)c(O)c2)[C@@H](OC(=O)c2cc(O)c(O)c(O)c2)[C@@H]1OC(=O)c1cc(O)c(O)c(O)c1)c1cc(O)c(O)c(O)c1 [β-PGG, 1,2,3,4,6-penta-O-galloyl-β-D-glucopyranose]
S. aureus SA113 [1]; coating with 1.9 μM β-PGG
  inhibition at 1.9 µM: 62%
S. aureus SA113 [1]; coating with 5.7 μM β-PGG
  inhibition at 5.7 µM: 85%
S. aureus SA113 [2]; coated with β-PGG at 1.9 μM or lower
  biofilm formation on coated polystyrene wells: slightly affected
S. aureus SA113 [2]; coated with β-PGG at a concentration higher than 3.8 μM
  decrease of the amount of biofilm on coated polystyrene wells: more than 90%
[3]
  toxicity to human epithelial and fibroblast cells: lacks toxicity; also recorded: not toxic
[4]; 3.13 μM
  decrease of the amount of biofilm, polycarbonate surface: 67%
[4]; 12.5 μM
  decrease of the amount of biofilm, polycarbonate surface: 96%
S. aureus SA113 [5]; 6.25 μM added at 0.5 hr after inoculation, DMSO = 100%
  reduction of biofilm formation: 62%
S. aureus SA113 [5]; 6.25 μM added at 1 hr after inoculation, DMSO = 100%
  reduction of biofilm formation: 19%
S. aureus SA113 [5]; 12.5 μM added at 0.5 and 1 hr after inoculation
  reduction of biofilm formation: more than 90%
S. aureus SA113 [5]; added at 1.5 and 2 hr after inoculation
  inhibition of biofilm formation: not inhibited
S. aureus SA113 [5]; added into the culture medium after seeding
  time of addition after seeding at which β-PGG is effective: ≤ 1 h
